Reference: ChEMBL document CHEMBL5725721, “Pyridazinone-amides derivatives” (2017)

Target: Interleukin-1 receptor-associated kinase 1 (Homo sapiens, UniProt P51617)
Test: IRAK1 Enzymatic Assay: IRAK1 is a human purified recombinant enzyme (His-TEV-IRAK1 (194-712)) In this assay, IRAK-1 hydrolyses ATP and autophosphorylates.Measurement of IRAK-1 inhibition is performed in streptavidin coated 384 well FlashPlate (PerkinElmer #SMP410A).His-TEV-IRAK-1 (15 ng/well), ATP (1 μM, [33P]ATP 0.25 μCi/well) and compounds in DMSO (range of concentrations from 20 μM to 1 nM) or controls (2% DMSO) are incubated for 3 hours at 30° C. in assay buffer: Hepes pH7.0 50 mM, Fatty acid-free BSA 0.1%, Dithiothreitol DTT 2 mM, MgCl2 10 mM, EGTA 0.5 mM, Triton-X-100 0.01%. Kinase reaction is stopped by addition of EDTA. Supernatant is discarded, plates are washed three times with 150 mM NaCl and radioactivity is then measured in a Microbeta Trilux reader.

Chain of Interleukin-1 receptor-associated kinase 1 (P51617 whole entry): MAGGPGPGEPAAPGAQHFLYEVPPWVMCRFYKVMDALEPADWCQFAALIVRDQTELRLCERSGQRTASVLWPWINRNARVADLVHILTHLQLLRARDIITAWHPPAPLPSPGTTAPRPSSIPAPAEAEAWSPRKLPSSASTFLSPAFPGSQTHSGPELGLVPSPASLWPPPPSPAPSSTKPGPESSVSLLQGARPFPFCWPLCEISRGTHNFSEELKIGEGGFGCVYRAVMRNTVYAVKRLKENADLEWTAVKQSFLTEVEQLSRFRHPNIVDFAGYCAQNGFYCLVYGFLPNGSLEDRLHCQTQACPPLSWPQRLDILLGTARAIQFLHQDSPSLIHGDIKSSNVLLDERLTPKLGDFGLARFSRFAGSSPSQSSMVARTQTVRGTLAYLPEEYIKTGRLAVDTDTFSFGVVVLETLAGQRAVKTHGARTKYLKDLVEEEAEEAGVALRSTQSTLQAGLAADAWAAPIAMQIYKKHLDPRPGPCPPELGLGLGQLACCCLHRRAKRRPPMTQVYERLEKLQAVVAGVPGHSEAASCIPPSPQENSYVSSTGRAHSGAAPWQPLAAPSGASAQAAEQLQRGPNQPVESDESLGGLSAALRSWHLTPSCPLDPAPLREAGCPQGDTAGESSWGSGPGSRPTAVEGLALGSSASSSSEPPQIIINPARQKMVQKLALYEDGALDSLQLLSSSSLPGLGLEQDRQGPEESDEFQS

## Cc1ccncc1-c1ccc(=O)n(Cc2cccc(C(=O)Nc3nc4ccccc4[nH]3)c2)n1
  IC50: < 0.1 µM
